Target: 4-aminobutyrate aminotransferase (Sus scrofa) (UniProt P80147)
Experiment: Kinact for pyridoxal 5'-phosphate (PLP)-dependent Gamma-amino-N-butyrate transaminase at pH 7.4

Chain of 4-aminobutyrate aminotransferase (Sus scrofa) (P80147 whole entry, looked up): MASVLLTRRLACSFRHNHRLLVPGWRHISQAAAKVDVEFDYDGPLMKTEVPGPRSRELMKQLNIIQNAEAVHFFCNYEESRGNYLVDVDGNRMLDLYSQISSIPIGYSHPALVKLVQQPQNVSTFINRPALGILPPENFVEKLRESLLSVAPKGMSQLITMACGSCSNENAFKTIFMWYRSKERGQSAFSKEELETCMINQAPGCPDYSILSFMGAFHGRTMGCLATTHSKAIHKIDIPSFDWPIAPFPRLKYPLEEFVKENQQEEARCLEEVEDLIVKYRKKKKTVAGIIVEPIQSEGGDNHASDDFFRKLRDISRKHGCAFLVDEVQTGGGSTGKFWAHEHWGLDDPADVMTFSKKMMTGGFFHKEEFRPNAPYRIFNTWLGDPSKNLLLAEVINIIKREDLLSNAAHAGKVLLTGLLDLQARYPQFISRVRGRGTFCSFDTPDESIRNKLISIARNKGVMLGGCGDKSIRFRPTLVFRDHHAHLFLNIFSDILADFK

NC1C=C(C(=O)O)OC1 (stereo unspecified)
K inact: 2.4 min⁻¹
